Tests used:
[1] = Antiproliferative activity against human MDA-MB-231 cells; type: functional, cell-based
[2] = Antiproliferative activity against human MCF7 cells; type: functional, cell-based
[3] = Antiproliferative activity against human MDA-MB-231 cells measured after 48 hrs by MTT assay; type: functional, cell-based; conditions: MDA-MB-231, 48 h
MDA-MB-231 = assay: Potency index, ratio of Oridonin EC50 to compound EC50 for human MDA-MB-231; type: functional
[4] = Antiproliferative activity against human MGC803 cells after 72 hrs by MTT assay; type: functional, cell-based; conditions: MGC-803, 72 h
[5] = Antiproliferative activity against human CaEs17 cells after 72 hrs by MTT assay; type: functional, cell-based; conditions: CaEs17, 72 h
[6] = Antiproliferative activity against human […] cells after 72 hrs by MTT assay; type: functional, cell-based
[7] = Antiproliferative activity against human K562 cells after 72 hrs by MTT assay; type: functional, cell-based; conditions: K562, 72 h
[8] = Antiproliferative activity against human […] cells after 24 hrs by MTT assay; type: functional, cell-based
[9] = Antitumor activity against H22 cells xenografted in ICR mouse assessed as tumor growth inhibition at 20 mg/kg/day, ip administered for 4 consecutive days relative to control; type: functional; conditions: read-out: TGI
[10] = Anticancer activity against human LX2 cells measured after 48 hrs by alamar blue assay; type: functional, cell-based; conditions: LX-2, 48 h
[11] = Anticancer activity against human K562/ADR cells measured after 24 hrs by MTT assay; type: functional, cell-based
[12] = Anticancer activity against human K562 cells measured after 24 hrs by MTT assay; type: functional, cell-based; conditions: K562, 24 h
[13] = Anticancer activity against human PC3 cells measured after 48 hrs by CCK8 assay; type: functional, cell-based; conditions: PC-3, 48 h
[14] = Anticancer activity against human SW620 cells measured after 24 hrs by MTT assay; type: functional, cell-based; conditions: SW-620, 24 h
[15] = Antiproliferative activity against human ER-triple negative MDA-MB-468 cells measured after 48 hrs by MTT assay; type: functional, cell-based; conditions: MDA-MB-468, 48 h
[16] = Anticancer activity against rat HSC-T6 cells measured after 48 hrs by alamar blue assay; type: functional, cell-based; conditions: HSC-T6, 48 h
[17] = Anticancer activity against human Kasumi-1 cells measured after 48 hrs by CCK8 assay; type: functional, cell-based; conditions: Kasumi 1, 48 h
[18] = Anticancer activity against AML cells isolated from AML-ETO9a leukemia mouse measured after 48 hrs by CCK8 assay; type: functional, cell-based
[19] = Anticancer activity against human RPMI8226 cells measured after 48 hrs by trypan blue assay; type: functional, cell-based; conditions: RPMI-8226, 48 h
[20] = Oral bioavailability in Wistar rat at 20 mg/kg administered as single dose through gavage measured after 48 hrs by HPLC/ESI-MS analysis; type: ADME, organism-based; conditions: in vivo
[21] = Antitumor activity against human MGC803 cells xenografted in ICR mouse assessed as tumor growth inhibition at 40 mg/kg/day, ip for 25 consecutive days relative to control; type: functional; conditions: MGC-803, ip, read-out: TGI
[22] = Anticancer activity against human MT1 cells measured after 48 hrs by trypan blue assay; type: functional, cell-based; conditions: MT1, 48 h
[23] = Anticancer activity against human SW480 cells measured after 24 hrs by MTT assay; type: functional, cell-based; conditions: SW480, 24 h
[24] = Antiproliferative activity against human MCF7/ADR cells measured after 48 hrs by MTT assay; type: functional, cell-based; conditions: NCI/ADR-RES
[25] = Antiproliferative activity against human ER-positive MCF7 cells measured after 48 hrs by MTT assay; type: functional, cell-based; conditions: MCF7, 48 h
[26] = Anticancer activity against human MT2 cells measured after 48 hrs by trypan blue assay; type: functional, cell-based; conditions: MT2, 48 h
[27] = Anticancer activity against human U266 cells measured after 48 hrs by trypan blue assay; type: functional, cell-based; conditions: U-266, 48 h
[28] = Anticancer activity against human Jurkat cells measured after 48 hrs by trypan blue assay; type: functional, cell-based
[29] = Oral bioavailability in Wistar rat at 10 mg/kg, ip administered as single dose measured after 36 hrs by HPLC/ESI-MS analysis; type: ADME, organism-based; conditions: in vivo, intraperitoneal
[30] = Anticancer activity against human LNCAP cells measured after 48 hrs by CCK8 assay; type: functional, cell-based
[31] = Anticancer activity against human Hep2 cells measured after 24 hrs by MTT assay; type: functional, cell-based; conditions: HEp-2, 24 h
[32] = Cytotoxicity against human K562 cells by MTT assay; type: functional, cell-based
[33] = Toxicity in iv dosed Sprague-Dawley rat administered qd for 28 days; type: organism-based; conditions: in vivo

C=C1C(=O)[C@]23[C@H](O)[C@H]1CC[C@H]2[C@@]12CO[C@@]3(O)[C@@H](O)[C@@H]1C(C)(C)Cc1sc(NCCCC)nc12
EC50 [1]: 1100 nM | EC50 [2]: 600 nM

C=C1C(=O)[C@]23[C@H](O)[C@H]1CC[C@H]2[C@@]12CO[C@@]3(O)[C@@H](O)[C@@H]1C(C)(C)Cc1sc(N)nc12
EC50 [1]: 3200 nM | EC50 [2]: 1000 nM

C=C1C(=O)[C@]23[C@H](O)[C@H]1CC[C@H]2[C@@]12CO[C@@]3(O)[C@@H](O)[C@@H]1C(C)(C)Cc1sc(N3CCCCCC3)nc12
EC50 [1]: 6800 nM | EC50 [2]: 1200 nM

C=C1C(=O)[C@@]23[C@@H]4OC(C)(C)O[C@@]25OC[C@]2([C@@H](n6cc(-c7ccccc7)nn6)C=CC(C)(C)[C@H]2[C@@H]5O)[C@@H]3CC[C@@H]14
EC50 [3]: 480 nM | Ratio EC50 (MDA-MB-231): 61

C=C1C(=O)[C@]23[C@H](O)[C@H]1CC[C@H]2[C@@]12CO[C@@]3(O)[C@@H](O)[C@@H]1C(C)(C)Cc1sc(N(C)C)nc12
EC50 [1]: 300 nM | EC50 [2]: 800 nM

C=C1C(=O)[C@]23[C@H](O)[C@H]1CC[C@H]2[C@@]12CO[C@@]3(O)[C@@H](O)[C@@H]1C(C)(C)Cc1sc(NC(=N)N)nc12
EC50 [1]: > 10000 nM | EC50 [2]: 3400 nM

C=C1C(=O)[C@@]23C(=O)O[C@H]4CCC(C)(C)[C@H]5[C@H](O)OC[C@@]45[C@@H]2CC[C@@H]1[C@H]3OC(=O)c1ccc(C)cc1
EC50 [4]: 610 nM | EC50 [5]: 450 nM | EC50 [6]: 1010 nM | EC50 [7]: 140 nM

C=C1C(=O)[C@@]23C(=O)O[C@H]4CCC(C)(C)[C@H]5C(=O)OC[C@@]45[C@@H]2CC[C@@H]1[C@H]3OC(=O)c1ccc(C)cc1
EC50 [4]: 1540 nM | EC50 [5]: 1780 nM | EC50 [6]: 1580 nM | EC50 [7]: 520 nM

C=C1C(=O)[C@]23[C@H](OC(=O)CC(CCCCCCCCCCCC)C(=O)O)[C@H]1CC[C@H]2[C@@]12CO[C@@]3(O)[C@@H](O)[C@@H]1C(C)(C)CC[C@@H]2O (stereo partly specified)
EC50 [8]: 2060 nM | inhibition in vivo at 20 mg/kg/day [9]: 63.7%

C=C1C(=O)[C@]23[C@H](O)[C@H]1CC[C@H]2[C@@]12CO[C@]3(O)[C@@H](O)[C@@H]1C(C)(C)CC[C@@H]2O [ORIDONIN]
EC50 [10]: 7000 nM | EC50 [11]: < 40000 nM | EC50 [12]: 14600 nM | EC50 [4]: 5690 nM | EC50 [13]: 25000 nM | EC50 [14]: 20800 to 37000 nM | EC50 [5]: 11000 nM | EC50 [15]: 5300 nM | EC50 [16]: 7000 nM | EC50 [17]: 1330 nM | EC50 [18]: 2500 nM | EC50 [1]: 29400 nM | EC50 [3]: 28000 to 29400 nM | EC50 [19]: 1200 to 2700 nM | bioavailability [20]: 4.3% | inhibition in vivo at 40 mg/kg/day [21]: 37.3% | EC50 [22]: 1200 to 2700 nM | EC50 [8]: 29800 nM | EC50 [23]: 20800 to 37000 nM | EC50 [6]: 7480 nM | EC50 [24]: 34800 nM | inhibition in vivo at 20 mg/kg/day [9]: 42.7% | EC50 [7]: 4760 nM | EC50 [2]: 6600 nM | EC50 [25]: 4400 nM | EC50 [26]: 1200 to 2700 nM | EC50 [27]: 1200 to 2700 nM | EC50 [28]: 1200 to 2700 nM | bioavailability [29]: 12.6% | EC50 [30]: 25000 nM | EC50 [31]: 37100 nM

C=C1C(=O)[C@@]23C(=O)O[C@H]4CCC(C)(C)[C@H]5C(=O)OC[C@@]45[C@@H]2CC[C@@H]1[C@H]3OC(=O)c1ccccc1Cl
EC50 [4]: 820 nM | EC50 [5]: 280 nM | EC50 [6]: 720 nM | EC50 [7]: 260 nM

C=CCNc1nc2c(s1)CC(C)(C)[C@H]1[C@H](O)[C@]3(O)OC[C@@]21[C@@H]1CC[C@H]2C(=C)C(=O)[C@]13[C@@H]2O
EC50 [1]: 200 nM | EC50 [2]: 200 nM | Ratio EC50 (MDA-MB-231): 147

C=C1C(=O)[C@@]23C(=O)O[C@H]4CCC(C)(C)[C@H]5C(=O)OC[C@@]45[C@@H]2CC[C@@H]1[C@H]3OC(C)=O
EC50 [4]: 1270 nM | EC50 [5]: 690 nM | EC50 [6]: 1370 nM | EC50 [7]: 350 nM

C=C1C(=O)[C@@]23C(=O)O[C@H]4CCC(C)(C)[C@H]5C(=O)OC[C@@]45[C@@H]2CC[C@@H]1[C@H]3OC(=O)c1cccnc1
EC50 [4]: 1160 nM | EC50 [5]: 3540 nM | inhibition in vivo at 40 mg/kg/day [21]: 64.8% | EC50 [6]: 710 nM | EC50 [7]: 1740 nM

C=C1C(=O)[C@]23[C@H](O)[C@H]1CC[C@H]2[C@@]12CO[C@@]3(O)[C@@H](O)[C@@H]1C(C)(C)Cc1sc(NC)nc12
EC50 [1]: 2100 nM | EC50 [2]: 1300 nM

C=C1C(=O)[C@@]23C(=O)O[C@H]4CCC(C)(C)[C@H]5[C@H](O)OC[C@@]45[C@@H]2CC[C@@H]1[C@H]3OC(=O)c1ccccc1
EC50 [4]: 930 nM | EC50 [5]: 540 nM | EC50 [6]: 1420 nM | EC50 [7]: 210 nM

CC(=O)[C@@H]1CC[C@H]2[C@@]34CO[C@@]5(O)[C@@H](OC(=O)[C@]25[C@@H]1O)[C@@H]3C(C)(C)CC[C@@H]4O
EC50 [32]: 18500 nM

C=C1C(=O)[C@]23[C@H](O)[C@H]1CC[C@H]2[C@@]12CO[C@@]3(O)[C@@H](O)[C@@H]1C(C)(C)Cc1sc(NC3CCCCC3)nc12
EC50 [1]: 800 nM | EC50 [2]: 900 nM

C=C1C(=O)[C@@]23C(=O)O[C@H]4CCC(C)(C)[C@H]5[C@H](O)OC[C@@]45[C@@H]2CC[C@@H]1[C@H]3OC(C)=O
EC50 [4]: 1990 nM | EC50 [5]: 1590 nM | EC50 [6]: 1970 nM | EC50 [7]: 1110 nM

C=C1C(=O)[C@@]23C(=O)O[C@H]4CCC(C)(C)[C@H]5C(=O)OC[C@@]45[C@@H]2CC[C@@H]1[C@H]3OC(=O)c1ccccc1
EC50 [4]: 460 nM | EC50 [5]: 810 nM | EC50 [6]: 790 nM | EC50 [7]: 330 nM

C=C1C(=O)[C@]23[C@H](OC(=O)[C@H](C)N)[C@H]1CC[C@H]2[C@@]12CO[C@@]3(O)[C@@H](O)[C@@H]1C(C)(C)CC[C@@H]2O.O=C(O)C(F)(F)F
NOAEL at 672 h [33]: 40 mg/kg

C=C1C(=O)[C@]23[C@H](O)[C@H]1CC[C@H]2[C@@]12CO[C@@]3(O)[C@@H](O)[C@@H]1C(C)(C)Cc1sc(NCCN3CCCCC3)nc12
EC50 [1]: 1800 nM | EC50 [2]: 1000 nM

C=C1C(=O)[C@]23[C@H](O)[C@H]1CC[C@H]2[C@@]12CO[C@@]3(O)[C@@H](O)[C@@H]1C(C)(C)Cc1sc(NC(C)=O)nc12
EC50 [1]: 6800 nM | EC50 [2]: 2000 nM

Reference: ChEMBL document CHEMBL3865791, “Discovery and development of natural product oridonin-inspired anticancer agents” (Eur J Med Chem, 2016)
